Measurements: patent EP0327365B1, “Improvements in or relating to modified haptens useful as imaging and therapeutic agents” (HYBRITECH INCORPORATED, priority 1988, dated 1989)

Legend:
[1] = test system: T-380 tumors; experiment: Hapten biodistribution, premix protocol with bifunctional antibody ECH037.2; format: in vivo, nude mice; parameters: TOTAL RECOV: unit not given here; conditions: for % DOSE PER GRAM, KIDNEY / % DOSE PER GRAM, LIVER / % DOSE PER GRAM, TUMOR / FECES / URINE / % DOSE PER GRAM, BLOOD / TUMOR/BLOOD / TOTAL RECOV: premix with 20 µg ECH037.2; for % DOSE PER GRAM, BLOOD: 111In-labeled hapten i.v.; for TUMOR/BLOOD: ratio; for Percent Injected Dose in Feces: premix protocol (Table VI); for %Dose per Gram, Blood / %Dose per Gram, Tumor: premix with 20 µg ECH037.2 (Table VIII)
Description: (§1) Two protocols were used for examining the biodistribution of the derivatized haptens in the presence of the bifunctional antibody ECH037.2. In a premix protocol, ECH037.2 and the derivatized hapten were combined prior to injection in the animals. In the prelocalization protocol, ECH037.2 was injected into the animals, and the antibody was allowed to prelocalize for 24 hours prior to injection of the radiolabeled hapten.
(§2) Biodistribution studies were performed in nude mice carrying subcutaneous implants of the human colon carcinoma cell line T-380 which expresses the carcinoembryonic antigen (CEA) recognized by ECH037.2. Briefly, Balb/C Nu/Nu mice were injected subcutaneously with a minced preparation of T-380 tumor implants and maintained for approximately two weeks, or until the tumor implant had grown to a size of approximately 0.5 grams as described by Hagan, P.L., et al. J. Nuc. Med., 26 1418-1423 (1985). Mice were kept in a sterile environment to prevent complications due to bacterial or viral infections. Biodistributions were performed as described by Halpern, S., et al., Cancer Res. 43, 5347-5355 (1983). Briefly, the radiolabeled haptens were injected intravenously in […], and the pharmacokinetics were evaluated at several time points post-injection. At these times, mice were sacrificed and weighed. Organs were removed, their weight recorded, and each organ was then washed in sterile PBS, pH 7.0, and fixed in formalin solution. Samples of blood, urine and feces also were collected and their weight similarly recorded. The organs, or a portion thereof, were transferred to clean tubes and their radioactive content was determined in a well-type gamma-counter.
(§3) Relative radioactive content of each organ was expressed as a percentage of injected dose per organ.
To indium-label the haptens of the invention 10 »l of 0.1 mM ligand was combined with X »l of ¹¹¹InCl₃ (in 50 mM HCl) and (x+10) »l of 0.26 M ammonium citrate, pH 6.0. X is calculated by the following equation: X = (200 »Ci)/(A »Ci/»l) [formula] where A is the specific activity of the ¹¹¹In.
The labeling was done in an acid-washed microfuge tube. After combining all of the components above, the solution was vortexed and allowed to stand at room temperature for 15 minutes.
Incorporation of the ¹¹¹In into the chelating agent was determined by TLC on silica in a methanol/aqueous ammonium acetate solvent system as described by Meares, et al. (Anal. Biochem., 142, 68-75 (1984)). Greater than 95% incorporation of the radioactivity into the chelate was required for the sample to be submitted for a biodistribution assay.
Prior to injection the ¹¹¹In-labeled hapten was diluted into freshly prepared isotonic sodium bicarbonate (1.39% w/v) containing 1 mg/ml normal human serum albumin (Buminate, 25% solution, Travenol Laboratories, Glendale, California) to which the bifunctional antibody had been added. The final composition of the solution was 0.2 mg/ml ECH037.2, 0.5 »M chelate, 0.1 »Ci/»l ¹¹¹In, all in a volume of 2.0 ml. For the biodistribution studies, 100 »l of the solution was injected into the tail vein of each animal.

[2] = test system: T-380 tumors; experiment: Hapten biodistribution, prelocalization protocol with bifunctional antibody ECH037.2; format: in vivo, nude mice
Description: as §1, §2, §3
To indium-label the chelating agents for the prelocalization protocol, 5 »l of 0.1 mM chelating agent was combined with X »l of ¹¹¹InCl₃ (in 50 mM HCl) and (x+5) »l of 0.26 M ammonium citrate, pH 6.0. X was calculated by the following equation: X = 200 »Ci/A »Ci/»l [formula] where A is the specific activity of the ¹¹¹InCl₃ solution. The solution was vortexed and allowed to stand at room temperature for 15 minutes, after which incorporation of ¹¹¹In label into the chelating agent was determined as described for the premix protocol. If at least 95 percent of the ¹¹¹In was bound by the chelating agent, the material was then diluted to a final volume of 2 ml with isotonic (1.39 percent, w/v) sodium bicarbonate containing 1 mg/ml normal human serum albumin. This material (100 »l) then was injected into each tail vein of mice which had each been injected 24 hours earlier with 5 »g of ECH037.2 in 100 »l isotonic sodium bicarbonate containing 1 mg/ml normal human serum albumin.

[3] = test system: antibody CHA255; experiment: Antibody CHA255 binding assay (Centrifree ultrafiltration); parameters: species or system BALB/c mice; conditions: ⁹⁰Y³⁺ or ¹¹¹In³⁺ chelate of DTPA alone
Description: As indicated, the monoclonal antibody CHA255 is specific for the In³⁺-benzyl EDTA complex. The affinity and characterization have been described previously in Nature, 316, 265 (1985). Binding assays were performed to verify the identity of the haptens designated as DB-I to DB-VIII. […] For the ⁹⁰Y³⁺ hapten chelate, in particular, CHA255 binding required the presence of the In-benzyl-EDTA moiety as provided in the compounds of the invention. The labeled DB hapten chelates were combined with antibody CHA255 in PBS (10 mM sodium phosphate, 150 mM sodium chloride, pH 7.4) containing 44 »g/ml of human serum albumin and 0.05% Triton-X-100 detergent. Concentrations of the radiolabeled hapten chelating agent and antibody are 5 nM and 133 nM, respectively. The mixture is vortexed and allowed to stand at room temperature for 15 minutes, after which it is transferred to an Amicon Centrifree™ device, with a NMW limit of 30,000, and centrifuged to separate antibody-bound chelate from free hapten chelate. The species bound to the antibody is retained by the membrane and the free chelate flows through the membrane into the filtrate. The extent of antibody-hapten chelate binding is then determined.

[4] = test system: monoclonal antibody CHA255; experiment: Determination of hapten-antibody dissociation rates; format: binding, BALB/c mice; conditions: 22°C; indium complex of hapten from CHA255 after 100 fold excess of indium-115 loaded hapten
Description: Hapten-antibody dissociation rates were determined using monoclonal antibody CHA255, prepared as described in Example 2A, by measuring the quantity of ¹¹¹In³⁺ chelate released from the antibody hapten complex as a function of time after addition of a 100 fold excess (over antibody binding sites) of indium-115 loaded hapten. Thus, for each hapten, a 700 »l solution was prepared containing: antibody at a concentration of 160 nM; indium loaded hapten, trace labeled with ¹¹¹In (total concentration = 160 nM); normal human serum albumin at a total concentration of 1.5 mg/mL; and isotonic phosphate buffered saline, (10 mM PO₄²⁻, 150 mM NaCl, pH 7.2). Indium-115 loaded hapten was added to a final Concentration of […]. Reactions were stirred by placing the sample containers ir a rack mounted on a vortexer head.
At various times after addition of the excess hapten, […] portions of the reaction solutions were transferred to Centrifree tubes (Amicon Corperation, Danvers, Massachusetts) and centrifuged at 1500xg for eight to ten minutes. The reaction time was taken to be the time between addition of the excess hapten and the time the centrifuge reached the desired velocity. Six timepoints, each in duplicate, were obtained over a range of about two reaction half-lives for each rate constant determination. A 200 »l portion from each centrifuged and uncentrifuged solution was then counted for ¹¹¹In. The relative concentration of free hapten was taken to be the ratio of counts in the centrifuged solution to the uncentrifuged solution at each timepoint. Times were recorded to the nearest tenth of a minute.
Room temperature rate constants were measured without the aid of a constant temperature bath. The ambient temperature remained at 22°±1 C.
Rate constants and standard deviations were obtained from a plot of the logarithm of relative complex concentration vs. time. Data were analyzed using the linear regression module of the RS/1 Program (BBN Software Products Corporation, Cambridge, Massachusetts).
Control samples were included in each experiment to determine: A) that the initial condition of 100% of labeled hapten bound to antibody was met, and B) that in the absence of antibody, 100% of counts were able to penetrate the Centrifree membrane. […]

| SMILES | % DOSE PER GRAM, KIDNEY ([1]; 24 hours) | % DOSE PER GRAM, LIVER ([1]; 24 hours) | % DOSE PER GRAM, TUMOR ([1]; 24 hours) | FECES ([1]; 24 hours) | URINE ([1]; 24 hours) | % DOSE PER GRAM, BLOOD ([1]; 24 hours) | TUMOR/BLOOD ([1]; 24 hours) | Percent Injected Dose in Feces ([1]; 24 hrs.) | % DOSE PER GRAM, KIDNEY ([1]; 48 hours) | % DOSE PER GRAM, LIVER ([1]; 48 hours) | % DOSE PER GRAM, TUMOR ([1]; 48 hours) | FECES ([1]; 48 hours) | URINE ([1]; 48 hours) | % DOSE PER GRAM, BLOOD ([1]; 48 hours) | TUMOR/BLOOD ([1]; 48 hours) | Percent Injected Dose in Feces ([1]; 48 hrs.) | TOTAL RECOV ([1]; 24 hours) | TOTAL RECOV ([1]; 48 hours) | t1/2, Dissociation Half-Lives [4] | other results |
| --- | --- | --- | --- | --- | --- | --- | --- | --- | --- | --- | --- | --- | --- | --- | --- | --- | --- | --- | --- | --- |
| O=C(O)CN(CC(=O)O)CC(Cc1ccc(NC(=S)NCCO)cc1)N(CC(=O)O)CC(=O)O (stereo not shown) [EOTUBE] | 2.8 % DOSE PER GRAM | 3.8 % DOSE PER GRAM | 12.5 % DOSE PER GRAM | 6.2% of total injected dose | 25.9% of total injected dose | 9.3 % DOSE PER GRAM | 1.34 | 6.2 Percent Injected Dose | 1.4 % DOSE PER GRAM | 3.1 % DOSE PER GRAM | 14.5 % DOSE PER GRAM | 7.9% of total injected dose | 49.3% of total injected dose | 4.7 % DOSE PER GRAM | 3.09 | 7.9 Percent Injected Dose | – | – | – | tumor uptake ([1]; premix protocol, Figure 1 (24 and 48 hours), in words): outstanding tumor uptake; tumor/blood ratios ([1]; premix protocol, Figure 2 (24 and 48 hours), in words): good tumor/blood ratios; tumor/organ ratios ([2]; 24 hours (Figure 7), in words): high tumor/organ ratios; tumor uptake ([2]; all time points (Figures 3-5), in words): high tumor uptake at all time points |
| O=C(O)CN(CCN(CC(=O)O)CC(=O)O)CCN(CC(=O)O)CC(=O)O [DTPA, diethylenetriaminepentaacetic acid] | – | – | – | – | – | – | – | – | – | – | – | – | – | – | – | – | – | – | – | binding to CHA255 [3]: neither ⁹⁰Y³⁺ or ¹¹¹In³⁺ DTPA, alone, bound to CHA255 |
| O=C(O)Cc1ccc(NC(=S)Nc2ccc(CC(CN(CC(=O)O)CC(=O)O)N(CC(=O)O)CC(=O)O)cc2)cc1 (stereo not shown) [PHATUBE] | 1.2 % DOSE PER GRAM | 1.7 % DOSE PER GRAM | 8.4 % DOSE PER GRAM | 22.0% of total injected dose | 21.7% of total injected dose | 6.2 % DOSE PER GRAM | 1.35 | 22.0 Percent Injected Dose | 0.8 % DOSE PER GRAM | 1.1 % DOSE PER GRAM | 6.9 % DOSE PER GRAM | 34.9% of total injected dose | 22.4% of total injected dose | 3.7 % DOSE PER GRAM | 1.86 | 34.9 Percent Injected Dose | 59.7 | 66.4 | 1.19 h | fecal excretion ([2]; 5 µg ECH037.2 24 hours earlier, all time points (4, 24, 48 hours), Figures 3-5, in words): high degree of fecal excretion; tumor/organ values ([2]; Figures 6-8 (4, 24, 48 hours), in words): exceptional |
| NC(=S)Nc1ccc(CC(CN(CC(=O)O)CC(=O)O)N(CC(=O)O)CC(=O)O)cc1 (stereo not shown) [TUBE] | 2.4 % DOSE PER GRAM | 4.0 % DOSE PER GRAM | 8.5 % DOSE PER GRAM | 4.1% of total injected dose | 23.7% of total injected dose | 8.0 % DOSE PER GRAM | 1.06 | 4.1 Percent Injected Dose | 1.1 % DOSE PER GRAM | 1.6 % DOSE PER GRAM | 6.5 % DOSE PER GRAM | 9.8% of total injected dose | 48.8% of total injected dose | 3.8 % DOSE PER GRAM | 1.71 | 9.9 Percent Injected Dose | 48.2 | 69.5 | 1.4 h | %Dose per Gram, Blood ([1]; 24 hrs. post-injection): 8.0 %Dose per Gram; %Dose per Gram, Tumor ([1]; 24 hrs. post-injection): 8.5 %Dose per Gram; %Dose per Gram, Blood ([1]; 48 hrs. post-injection): 3.8 %Dose per Gram; %Dose per Gram, Tumor ([1]; 48 hrs. post-injection): 6.5 %Dose per Gram; %Dose per Gram, Blood ([1]; 72 hrs. post-injection): 1.7 %Dose per Gram; %Dose per Gram, Tumor ([1]; 72 hrs. post-injection): 5.3 %Dose per Gram |
